Source: PubChem BioAssay (NCI)
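A five-concentration, 48-hour dose response in 96-well plates underlies each endpoint, interpolated linearly between surrounding concentrations. TGI denotes the concentration required for complete inhibition of growth.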 Where a SMILES comes first, the peptide text is derived from it. The star is where a group is joined. Boc = CC(C)(C)OC(=O)*; OtBu = CC(C)(C)O*

Experiments:
Test in all cases: NCI anticancer screen, dose series, 48 h
PC-3 prostate = tested on: PC-3 prostate
KM12 colon = tested on: KM12 colon
MDA-MB-435 = tested on: MDA-MB-435
K-562 leukemia = tested on: K-562 leukemia
CAKI-1 renal = tested on: CAKI-1 renal
HL-60(TB) leukemia = tested on: HL-60(TB) leukemia
MDA-MB-231 breast = tested on: MDA-MB-231 breast
MCF7 breast = tested on: MCF7 breast
HCT-15 colon = tested on: HCT-15 colon
OVCAR-4 ovarian = tested on: OVCAR-4 ovarian

Compound	TGI (PC-3 prostate)	TGI (KM12 colon)	TGI (MDA-MB-435)	TGI (K-562 leukemia)	TGI (CAKI-1 renal)	TGI (HL-60(TB) leukemia)	TGI (MDA-MB-231 breast)	TGI (MCF7 breast)	TGI (HCT-15 colon)	TGI (OVCAR-4 ovarian)
O=C(NNC(=O)c1cc2ccccc2[nH]1)c1cc2ccccc2[nH]1	> 100 µM	> 100 µM	> 100 µM	> 100 µM	> 100 µM	> 100 µM	> 100 µM	> 100 µM	> 100 µM	> 100 µM
CC(=O)OCC1OC(NC(=S)Nn2c(-c3ccccc3)nc3ccccc3c2=O)C(OC(C)=O)C(OC(C)=O)C1OC(C)=O (configuration not stated)	> 100 µM	> 100 µM	> 100 µM	> 100 µM	> 100 µM	> 100 µM	> 100 µM	> 100 µM	> 100 µM	
CC(=O)OCC1OC(Sc2nc(-c3ccccc3)c(C#N)c(=O)n2C2OC(COC(C)=O)C(OC(C)=O)C(OC(C)=O)C2OC(C)=O)C(OC(C)=O)C(OC(C)=O)C1OC(C)=O (configuration not stated)	> 100 µM	> 100 µM	> 100 µM	> 100 µM	> 100 µM		> 100 µM	> 100 µM	> 100 µM	
O=C(O)c1ccc2nc(-c3ccccn3)c(-c3ccccn3)nc2c1	> 100 µM	> 100 µM	> 100 µM	> 100 µM	> 100 µM	> 100 µM	> 100 µM	> 100 µM	> 100 µM	> 100 µM
CN1CN(c2ccccc2)C2(CCN(CCCN(C)c3ccc(F)cc3)CC2)C1=O	63.8 µM	31.3 µM	37.4 µM	30.1 µM	86.4 µM	26.2 µM	28.3 µM	29.2 µM	50.1 µM	
O=[N+]([O-])C1=Cc2c(O)ccc(O)c2C2c3ccccc3NC12 (configuration not stated)	19 µM	24.4 µM	28.6 µM	> 100 µM	8.99 µM	> 21 µM	31.4 µM	11.8 µM	36.4 µM	30.1 µM
COC(=O)c1nc2n(n1)-c1ccccc1C(=O)N(Cc1ccccc1)C2	> 100 µM	> 100 µM	> 100 µM	> 100 µM	> 100 µM	> 100 µM	> 100 µM	> 100 µM	> 100 µM	> 100 µM
CC(C)c1cc(C(C)C)c(S(=O)(=O)N/N=C2\CC3CCC2(C)C3(C)C)c(C(C)C)c1 (configuration not stated)	> 100 µM	> 100 µM	> 100 µM	> 100 µM	> 100 µM		> 100 µM	30.7 µM	> 100 µM	> 100 µM
CCOC(=O)c1c2ccccc2n2c(=O)n(-c3ccccc3)nnc12	> 100 µM	> 100 µM	> 100 µM	47.3 µM	> 100 µM	> 100 µM	> 100 µM	> 100 µM	> 100 µM	> 100 µM
CC(C)(C)OC(=O)CC(NC(=O)OC(C)(C)C)C(=O)NC(Cc1ccccc1)C(N)=O (configuration not stated) (Boc-Asp(OtBu)-Phe-NH2; configuration not given here)	> 100 µM	> 100 µM	> 100 µM	> 100 µM	> 100 µM		> 100 µM	> 100 µM	> 100 µM	> 100 µM
CN(C)CCCCN1c2ccccc2Sc2ccc(N=[N+]=[N-])cc21	10.5 µM	8.76 µM	4.36 µM	4.56 µM	18.4 µM	4.3 µM	19.9 µM	5.26 µM	12.8 µM	19.3 µM
Cc1ccc(Nc2nc3ccccc3nc2NS(=O)(=O)c2ccc(N)cc2)cc1	> 100 µM	94.3 µM	> 100 µM	> 100 µM	> 100 µM	80.5 µM	> 100 µM	> 100 µM	> 100 µM	71 µM
COc1nc2c(c(=O)[nH]1)N=C(c1ccc([N+](=O)[O-])cc1)CC(c1ccccc1)N2 (configuration not stated)	> 100 µM	> 100 µM	> 100 µM	> 100 µM	> 100 µM	46.6 µM	> 100 µM	> 100 µM		> 100 µM
COc1cc(Nc2nc(NS(=O)(=O)c3cc(C)c(Cl)cc3S)n[nH]2)cc(OC)c1OC	> 100 µM	> 100 µM	> 100 µM	> 100 µM	> 100 µM	> 100 µM	> 100 µM	> 100 µM	> 100 µM	> 100 µM
O=c1[nH]c2ccccc2c(=O)c2cc3ccccc3cc12	> 100 µM	> 100 µM	> 100 µM	> 100 µM	45.5 µM	> 100 µM	22 µM	> 100 µM	> 100 µM	> 100 µM
COc1ccc(CC(COS(=O)(=O)c2ccc(C)cc2)NS(=O)(=O)c2ccc(C)cc2)cc1 (configuration not stated)	38.9 µM	> 77 µM	28.5 µM	> 100 µM	> 60.8 µM		> 84.5 µM	> 69.7 µM	41.1 µM	41.9 µM
C/C(=N\NC(N)=O)C(CN1CCOCC1)C(c1ccccc1)c1c(O)c2ccccc2oc1=O (configuration not stated)	> 100 µM	> 100 µM	> 100 µM	> 100 µM	> 100 µM	> 100 µM	> 100 µM	> 100 µM	> 100 µM	> 100 µM
Cc1cccc2c(=O)c3cccc(CC(=O)O)c3oc12	> 100 µM	> 100 µM	> 100 µM	> 100 µM	> 100 µM	> 100 µM	> 100 µM	> 100 µM	> 100 µM	> 100 µM
CCOC(=O)c1sc(N)nc1N1CCCC1	> 100 µM	> 100 µM	> 100 µM	> 100 µM	> 100 µM	> 100 µM	> 100 µM	> 100 µM	> 100 µM	> 100 µM
C[N+](C)(C)CC(=O)N/N=C\c1c(O)ccc2ccccc12	> 100 µM	> 100 µM	> 100 µM	> 100 µM	> 100 µM	43.3 µM	> 100 µM	> 100 µM	> 100 µM	> 100 µM
O=c1oc2cc(O)ccc2c(O)c1C(c1ccc(/C=C/c2ccccc2)cc1)c1c(O)c2ccc(O)cc2oc1=O	> 100 µM	> 100 µM	> 100 µM	> 100 µM	> 100 µM	69.6 µM	> 100 µM	> 100 µM	> 100 µM	> 100 µM
